This passage reports inhibition results from ChEMBL document CHEMBL4507266, “Data for DCP probe BAY-784” (2021).

The data set addresses L-type calcium channel, dihydropyridine site (Cav1.2 alpha-1C) (Homo sapiens, UniProt Q13936). Kind of data set: Inhibition of Calcium Channel L-Type, Dihydropyridine at 10 µM in the Eurofins-Panlabs radioligand binding assay (Eurofins_assay_214600). Further details: ligand concentration 0.1 nM, non-specific ligand with concentration 1 µM Nitrendipine, incubation time 90 min, incubation temperature 25 °C. As to conditions: Wistar, rat, rat cerebral cortex preparation, probe [3H] Nitrendipine, 0.1 nM; compound concentration 10 uM; target entry is the homologue from another species; call rule not given here.

L-type calcium channel, dihydropyridine site (Cav1.2 alpha-1C), sequence (Q13936 whole entry): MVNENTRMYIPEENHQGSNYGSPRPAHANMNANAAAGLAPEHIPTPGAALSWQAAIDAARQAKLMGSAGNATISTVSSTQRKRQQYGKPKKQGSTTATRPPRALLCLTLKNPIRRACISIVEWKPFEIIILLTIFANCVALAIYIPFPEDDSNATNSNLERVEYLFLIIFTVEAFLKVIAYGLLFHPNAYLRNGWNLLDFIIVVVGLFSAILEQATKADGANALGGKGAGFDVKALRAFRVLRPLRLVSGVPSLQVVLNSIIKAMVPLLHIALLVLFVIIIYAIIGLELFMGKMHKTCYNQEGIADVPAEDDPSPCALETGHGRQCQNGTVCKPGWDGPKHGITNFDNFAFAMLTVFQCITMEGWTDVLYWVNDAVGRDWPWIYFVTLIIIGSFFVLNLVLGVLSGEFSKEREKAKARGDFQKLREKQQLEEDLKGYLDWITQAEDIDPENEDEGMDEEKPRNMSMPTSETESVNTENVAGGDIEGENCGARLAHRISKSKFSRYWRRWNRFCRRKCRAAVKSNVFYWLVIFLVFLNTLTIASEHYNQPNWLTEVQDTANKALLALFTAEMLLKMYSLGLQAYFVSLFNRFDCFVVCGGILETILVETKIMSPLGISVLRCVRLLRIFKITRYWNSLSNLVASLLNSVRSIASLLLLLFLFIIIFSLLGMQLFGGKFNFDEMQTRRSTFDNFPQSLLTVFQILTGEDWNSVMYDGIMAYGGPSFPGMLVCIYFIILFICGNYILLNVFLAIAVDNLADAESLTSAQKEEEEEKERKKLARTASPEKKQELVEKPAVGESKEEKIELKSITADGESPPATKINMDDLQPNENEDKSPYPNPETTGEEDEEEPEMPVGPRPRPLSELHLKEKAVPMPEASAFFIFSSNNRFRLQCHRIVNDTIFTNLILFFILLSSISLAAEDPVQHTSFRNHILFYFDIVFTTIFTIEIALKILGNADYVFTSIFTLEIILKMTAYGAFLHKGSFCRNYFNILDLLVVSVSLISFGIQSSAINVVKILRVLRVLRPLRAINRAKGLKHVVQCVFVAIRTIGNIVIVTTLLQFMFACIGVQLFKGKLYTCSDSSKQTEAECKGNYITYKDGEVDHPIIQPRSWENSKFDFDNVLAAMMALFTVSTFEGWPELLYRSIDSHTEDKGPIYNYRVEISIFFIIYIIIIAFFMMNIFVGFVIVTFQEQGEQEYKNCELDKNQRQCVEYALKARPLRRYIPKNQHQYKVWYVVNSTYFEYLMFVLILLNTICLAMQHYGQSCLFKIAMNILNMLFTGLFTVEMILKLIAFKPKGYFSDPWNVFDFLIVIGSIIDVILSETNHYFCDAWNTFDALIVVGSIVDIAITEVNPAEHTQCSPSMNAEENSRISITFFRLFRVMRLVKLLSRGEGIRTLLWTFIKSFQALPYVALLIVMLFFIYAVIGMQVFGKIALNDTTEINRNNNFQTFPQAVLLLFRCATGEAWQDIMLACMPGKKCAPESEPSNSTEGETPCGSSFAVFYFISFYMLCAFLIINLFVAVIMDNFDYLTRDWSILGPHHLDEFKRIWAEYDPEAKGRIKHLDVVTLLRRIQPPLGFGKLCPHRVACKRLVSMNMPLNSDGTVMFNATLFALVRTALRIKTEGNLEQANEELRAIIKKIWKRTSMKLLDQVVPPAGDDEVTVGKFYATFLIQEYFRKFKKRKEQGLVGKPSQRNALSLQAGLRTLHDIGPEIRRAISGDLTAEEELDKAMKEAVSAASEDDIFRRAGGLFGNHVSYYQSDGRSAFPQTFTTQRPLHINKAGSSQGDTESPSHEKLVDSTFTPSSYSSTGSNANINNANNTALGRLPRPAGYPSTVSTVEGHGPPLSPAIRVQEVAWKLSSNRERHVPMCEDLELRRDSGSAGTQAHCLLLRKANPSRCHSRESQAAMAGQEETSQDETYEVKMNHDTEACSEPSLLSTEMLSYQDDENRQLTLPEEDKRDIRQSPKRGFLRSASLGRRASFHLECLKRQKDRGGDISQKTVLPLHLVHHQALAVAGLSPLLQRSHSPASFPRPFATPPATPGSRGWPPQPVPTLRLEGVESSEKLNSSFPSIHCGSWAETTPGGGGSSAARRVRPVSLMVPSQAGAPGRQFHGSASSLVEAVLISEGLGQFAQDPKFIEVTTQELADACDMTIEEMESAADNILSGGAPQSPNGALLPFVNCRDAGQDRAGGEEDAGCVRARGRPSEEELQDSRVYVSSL

Turning to `O=C(NCc1ncc(C(F)(F)F)cc1Cl)c1ccc2c(c1)C1(CCS(=O)(=O)CC1)[C@H](C1CC1)N2S(=O)(=O)c1ccc(F)cc1` [BAY-784], the inhibition at 90 min, 10 µM was 26% (not active).
